# Where two headings read alike, the source gives them in different places.
# Assays:
# [1] = system: 304 E. coli clinical isolates; type: cell-based, Escherichia coli
# Protocol: (§1) Phage cocktail CK618 was tested in combination with and alongside antibiotics against two isolate panels. The first assay used a panel of 88 contemporaneous urinary tract infection (UTI) isolates from North America, Europe, Latin America, and Asia. […] The second assay used a panel made up of a 300-strain clinical isolate panel (Table 14) with an additional 4 strains of interest. […] Four of the same SOC antibiotics tested against the 88-isolate panel were tested against this panel. The non-SOC antibiotics were not included due to their limited use in clinical settings, and nitrofurantoin was not included due to the low probability of resistance to this drug.
# (§2) For both isolate panels, antibiotic concentrations tested were determined by using Clinical and Laboratory Standards Institute (CLSI) or European Committee on Antimicrobial Susceptibility Testing (EUCAST) breakpoints at concentrations that kill susceptible isolates but allow intermediate or resistant isolates to grow in the standard AST microdilution assay (Table 17).
# (§3) The composition of the proposed Phase 2 CRISPR-enhanced bacteriophage (CRISPR-phage, hereafter termed ‘crPhage’) cocktail (CK618) has been updated from the CK570 to include six bacteriophages as compared to three bacteriophages in CK570. Bacteriophage cocktail CK618, was prepared such that all bacteriophages had equivalent titers in the final cocktail. The cocktail was then mixed with bacteria to obtain final titers of 1×10^6 plaque-forming unit (PFU)/mL/phage for the cocktail and 1×10^5 colony-forming unit (CFU)/mL for the bacteria, resulting in a multiplicity of infection (MOI) of 10 for each bacteriophage in a sample. Briefly, 5 μl of each sample (CK618 alone, CK618 and antibiotics, antibiotics alone, or medium alone) was added to 5 μl of optical density (OD)-normalized bacterial isolate and 40 μl LB medium. Reactions were incubated at 37° C. with shaking and OD measurements were taken each hour for 20 hours.
# (§4) Host range percentage is the percent of isolates that responded to treatment of antibiotics or CK618. In the case of the 88-isolate panel, results were analyzed on the complete panel as well as the subset of classified as multidrug-resistant (MDR) (n=21) and beta-lactam-resistant (n=31).
# (§5) The first assay used a panel of 88 contemporaneous isolates. Twenty-one of those strains are classified as MDR, with resistance to 3 or more antibiotic classes. […] The second assay used the panel made up of a 300-strain clinical isolate panel with an additional 4 strains of interest.
# (§6) Antibiotic concentrations tested were determined by using CLSI or EUCAST breakpoints at concentrations that kill susceptible strains but allow intermediate or resistant strains to grow in the standard AST microdilution assay (Table 27). LBP-EC01 v.2 was combined with bacteria resulting in a MO of 10 for each bacteriophage in a sample. In the case of the 88-isolate panel, results were analyzed on the complete panel as well as the subset of isolates classified as multidrug-resistant (MDR) (n=21) and beta-lactam-resistant (n=31).
# [2] = system: 88 urinary tract infection E. coli isolates; type: cell-based, Escherichia coli; settings: for Host Range % on MDR Subset (n = 21), Combination: Antibiotic + LBP-EC01 v.2 / Host Range % on all Strains (n = 88), Combination: Antibiotic + LBP-EC01 v.2 / Host Range % on Beta-lactam-Resistant Subset (n = 31), Combination: Antibiotic + LBP-EC01 v.2: antibiotic combined with LBP-EC01 v.2; for Host Range % on all Strains (n = 88), Combination: Antibiotic + CK618 v.2: antibiotic at breakpoint concentration plus cocktail 1 × 10^6 PFU/ml per bacteriophage
# Protocol: as §1, §2, §3, §4, §5, §6
# [3] = 304-isolate panel, antibiotic combined with LBP-EC01 v.2
# [4] = 304-isolate panel, all strains, single agent
# [5] = 304-isolate panel, beta-lactam-resistant subset, antibiotic combined with LBP-EC01 v.2
# [6] = 304-isolate panel, beta-lactam-resistant subset, single agent
# [7] = 88-isolate panel, listed as Fosfomycin 8
# [8] = 88-isolate panel, listed as Fosfomycin 64
compound,measurement,setting,value
CC1=C(C(=O)O)N2C(=O)[C@@H](NC(=O)[C@H](N)c3ccccc3)[C@H]2SC1 [Cephalexin],"Host range % on MDR subset (n = 93), Combination: Antibiotic + LBP-CK618",[1]; 304-isolate panel,79.6%
same,"Host range % on MDR subset (n = 93), Single agent treatment",[1]; 304-isolate panel,24.7%
same,"Host range % on beta-lactam-resistant subset (n = 91), Combination: Antibiotic + LBP-CK618",[1]; 304-isolate panel,79.1%
same,"Host range % on beta-lactam-resistant subset (n = 91), Single agent treatment",[1]; 304-isolate panel,8.8%
same,"Host Range % on MDR Subset (n = 93), Combination Antibiotic + LBP-EC01 v.2",[1]; [3],79.6%
same,"Host Range % on all Strains (n = 304), Single agent treatment",[1]; [4],57.6%
same,"Host Range % on Beta-lactam-Resistant Subset (n = 91), Combination: Antibiotic + LBP-EC01 v.2",[1]; [5],79.1%
same,"Host range % on beta-lactam-resistant subset (n = 91), Single agent treatment",[1]; [6],8.8%
same,"Host Range % on Beta-lactam-Resistant Subset (n = 31), Combination: Antibiotic + CK618 v.2",[2]; 88-isolate panel,81.7%
same,"Host Range % on Beta-lactam-Resistant Subset (n = 31), Single agent treatment",[2]; 88-isolate panel,11.8%
same,"Host Range % on MDR Subset (n = 21), Combination: Antibiotic + CK618 v.2",[2]; 88-isolate panel,76.2%
same,"Host Range % on MDR Subset (n = 21), Single agent treatment",[2]; 88-isolate panel,14.3%
same,"Host Range % on MDR Subset (n = 21), Combination: Antibiotic + LBP-EC01 v.2","[2]; 88-isolate panel, MDR subset",76.2%
same,"Host Range % on MDR Subset (n = 21), Single agent treatment","[2]; 88-isolate panel, MDR subset, single agent",14.3%
same,"Host Range % on all Strains (n = 88), Combination: Antibiotic + LBP-EC01 v.2","[2]; 88-isolate panel, all strains",87.9%
same,"Host Range % on all Strains (n = 88), Single agent treatment","[2]; 88-isolate panel, all strains, single agent",49.2%
same,"Host Range % on Beta-lactam-Resistant Subset (n = 31), Combination: Antibiotic + LBP-EC01 v.2","[2]; 88-isolate panel, beta-lactam-resistant subset",81.7%
same,"Host Range % on Beta-lactam-Resistant Subset (n = 31), Single agent treatment","[2]; 88-isolate panel, beta-lactam-resistant subset, single agent",11.8%
same,"Host Range % on all Strains (n = 88), Single agent treatment","[2]; antibiotic at breakpoint concentration (Table 17), cocktail 1 × 10^6 PFU/ml per bacteriophage, MOI 10",49.2%
same,"Host Range % on all Strains (n = 88), Combination: Antibiotic + CK618 v.2",[2],87.9%
C[C@@H]1O[C@@H]1P(=O)(O)O [Fosfomycin],host range performance compared with antibiotics / combination (in words),"[1]; 88- and 304-isolate panels, all, MDR and beta-lactam-resistant strains",strong activity across all strains
same,"Host range % on MDR subset (n = 93), Combination: Antibiotic + LBP-CK618",[1]; 304-isolate panel,96.8%
same,"Host range % on MDR subset (n = 93), Single agent treatment",[1]; 304-isolate panel,83.9%
same,"Host range % on beta-lactam-resistant subset (n = 91), Combination: Antibiotic + LBP-CK618",[1]; 304-isolate panel,96.7%
same,"Host range % on beta-lactam-resistant subset (n = 91), Single agent treatment",[1]; 304-isolate panel,86.8%
same,"Host Range % on MDR Subset (n = 93), Combination Antibiotic + LBP-EC01 v.2",[1]; [3],96.8%
same,"Host Range % on all Strains (n = 304), Combination: Antibiotic + LBP-EC01 v.2","[1]; 304-isolate panel, all strains, antibiotic combined with LBP-EC01 v.2",97.0%
same,"Host Range % on all Strains (n = 304), Single agent treatment",[1]; [4],87.5%
same,"Host Range % on Beta-lactam-Resistant Subset (n = 91), Combination: Antibiotic + LBP-EC01 v.2",[1]; [5],96.7%
same,"Host range % on beta-lactam-resistant subset (n = 91), Single agent treatment",[1]; [6],86.8%
same,"Host Range % on MDR Subset (n = 21), Combination: Antibiotic + LBP-EC01 v.2","[2]; 88-isolate panel, MDR subset, listed as Fosfomycin 8",95.2%
same,"Host Range % on MDR Subset (n = 21), Combination: Antibiotic + LBP-EC01 v.2","[2]; 88-isolate panel, MDR subset, listed as Fosfomycin 64",100.0%
same,"Host Range % on MDR Subset (n = 21), Single agent treatment","[2]; 88-isolate panel, MDR subset, single agent, listed as Fosfomycin 8",90.5%
same,"Host Range % on MDR Subset (n = 21), Single agent treatment","[2]; 88-isolate panel, MDR subset, single agent, listed as Fosfomycin 64",96.8%
same,"Host Range % on all Strains (n = 88), Combination: Antibiotic + LBP-EC01 v.2","[2]; 88-isolate panel, all strains, listed as Fosfomycin 8",93.9%
same,"Host Range % on all Strains (n = 88), Combination: Antibiotic + LBP-EC01 v.2","[2]; 88-isolate panel, all strains, listed as Fosfomycin 64",98.5%
same,"Host Range % on all Strains (n = 88), Single agent treatment","[2]; 88-isolate panel, all strains, single agent, listed as Fosfomycin 8",85.2%
same,"Host Range % on all Strains (n = 88), Single agent treatment","[2]; 88-isolate panel, all strains, single agent, listed as Fosfomycin 64",93.2%
same,"Host Range % on Beta-lactam-Resistant Subset (n = 31), Combination: Antibiotic + LBP-EC01 v.2","[2]; 88-isolate panel, beta-lactam-resistant subset, listed as Fosfomycin 8",94.6%
same,"Host Range % on Beta-lactam-Resistant Subset (n = 31), Combination: Antibiotic + LBP-EC01 v.2","[2]; 88-isolate panel, beta-lactam-resistant subset, listed as Fosfomycin 64",100.0%
same,"Host Range % on Beta-lactam-Resistant Subset (n = 31), Single agent treatment","[2]; 88-isolate panel, beta-lactam-resistant subset, single agent, listed as Fosfomycin 8",87.1%
same,"Host Range % on Beta-lactam-Resistant Subset (n = 31), Single agent treatment","[2]; 88-isolate panel, beta-lactam-resistant subset, single agent, listed as Fosfomycin 64",95.7%
same,"Host Range % on Beta-lactam-Resistant Subset (n = 31), Combination: Antibiotic + CK618 v.2",[2]; [7],94.6%
same,"Host Range % on Beta-lactam-Resistant Subset (n = 31), Single agent treatment",[2]; [7],87.1%
same,"Host Range % on MDR Subset (n = 21), Combination: Antibiotic + CK618 v.2",[2]; [7],95.2%
same,"Host Range % on MDR Subset (n = 21), Single agent treatment",[2]; [7],90.5%
same,"Host Range % on Beta-lactam-Resistant Subset (n = 31), Combination: Antibiotic + CK618 v.2",[2]; [8],100.0%
same,"Host Range % on Beta-lactam-Resistant Subset (n = 31), Single agent treatment",[2]; [8],95.7%
same,"Host Range % on MDR Subset (n = 21), Combination: Antibiotic + CK618 v.2",[2]; [8],100.0%
same,"Host Range % on MDR Subset (n = 21), Single agent treatment",[2]; [8],96.8%
same,"Host Range % on all Strains (n = 88), Single agent treatment","[2]; antibiotic at breakpoint concentration (Table 17), cocktail 1 × 10^6 PFU/ml per bacteriophage, MOI 10, listed as Fosfomycin 8",85.2%
same,"Host Range % on all Strains (n = 88), Single agent treatment","[2]; antibiotic at breakpoint concentration (Table 17), cocktail 1 × 10^6 PFU/ml per bacteriophage, MOI 10, listed as Fosfomycin 64",93.2%
same,"Host Range % on all Strains (n = 88), Combination: Antibiotic + CK618 v.2",[2]; listed as Fosfomycin 8,93.9%
same,"Host Range % on all Strains (n = 88), Combination: Antibiotic + CK618 v.2",[2]; listed as Fosfomycin 64,98.5%

# Source: patent US20250345378A1 (priority 2022, published 2025)
